From paper PMC10673369, “Preliminary SAR of Novel Pleuromutilin–Polyamine Conjugates” (Microorganisms, 2023)

Assays:
[1] = system: P. aeruginosa PAO1; assay: Real-time growth inhibition curves, P. aeruginosa; type: cell-based; settings: optical density during 18 h culturing
[2] = system: S. aureus ATCC 25923; assay: Real-time growth inhibition curves, S. aureus; type: cell-based; settings: optical density during 18 h culturing
Procedure: Real-time growth curves were determined using reported protocols (see Supplementary File).
Further investigation is required to determine the factors leading to the differences observed in the sub-MIC growth curves for the two compounds.
(§1) Briefly, restoring enhancer concentrations were determined with an inoculum of 5x10^5 CFU in 200 µL of MHB containing two-fold serial dilutions of each derivative in the presence of doxycycline at 4.5 […]
(§2) The lowest concentration of the polyamine
(§3) These measurements were independently repeated in triplicate.
(§4) Outer membrane permeabilization was measured using nitrocefin as a chromogenic substrate of periplasmic β-lactamase. […] Nitrocefin hydrolysis was monitored spectrophotometrically by measuring the increase in absorbance at 490 nm. […]
(§5) HEK293 cells were counted manually in a Neubauer hemocytometer and plated at a density of 5,000 cells/well into each well of the 384-well plates containing the 25x (2 µL) concentrated compounds [26,27]. […]
(§6) To measure cytotoxicity, 5 µL (equals 100 µM final) of resazurin was added to each well after incubation and incubated for further 3 h at 37 °C with 5% CO2. After the final incubation, fluorescence intensity […]
reader. […] The concentration-dependent percentage cytotoxicity was fitted to a dose–response function (using Pipeline Pilot) and CC50 values were determined. […]

[3] = system: P. aeruginosa PAO1; assay: Nitrocefin hydrolysis assay (outer membrane permeabilization); type: cell-based; settings: polymyxin B at 98.3 μM ([…])
Procedure: Nitrocefin assays were conducted using reported protocols (see Supplementary File).
We also examined the ability of 9e to act as membrane disruptor of the Gram-negative bacteria P. aeruginosa PAO1 (Figure 5), using a nitrocefin colorimetric assay. This assay makes use of a chromogenic cephalosporin derivative, which in the presence of an outer membrane disruptor gains entry to the periplasm, where upon the action of β-lactamases leads to substrate hydrolysis with a detectable color change from yellow to red.
as §1, §2, §3, §4, §5, §6
reader. […] The concentration-dependent percentage cytotoxicity was fitted to a dose–response function (using Pipeline Pilot) and CC50 values were determined.
Human whole blood was washed three times with three volumes of 0.9% NaCl and then resuspended in the same solution to a concentration of 0.5 x 10^8 cells/mL, as determined by the manual cell count in a Neubauer hemocytometer. […] Hemolysis was determined by measuring the supernatant absorbance at […] (OD405). The absorbance was measured using a Tecan M1000 Pro monochromator plate reader. […]

[4] = system: S. aureus ATCC 25923; assay: ATP efflux assay, S. aureus; type: cell-based, Staphylococcus aureus; settings: compound at 100 µg/mL
Procedure: (§7) ATP efflux assays were conducted using reported protocols (see Supplementary File).
(§8) The mechanism of antibiotic action of 9e towards the Gram-positive bacterium Staphylococcus aureus was attributed to its ability to disrupt the bacterial membrane and cause the release of intracellular ATP. The test organisms, being S. aureus ATCC 25923 and MRSA, were briefly exposed to 9e at a single dose of 100 µg/mL, with the leakage of ATP determined by the use of a bioluminescence assay (Figure 4). […] Nevertheless, a 40% level of ATP release is detrimental to the survival of the bacteria. After 3 min, it will be clear that the bacteria will be killed.
(§9) 2.9 ATP efflux measurement
(§10) A solution of the compound was prepared in twice-distilled water at a fixed concentration of 100 µg/mL. The different Gram-positive suspensions were prepared in MH II broth and were incubated at 37 °C. […] Subsequently, 50 µL of Luceferin–Luceferase reagent (Yelen, France) was added to the mixture, and the luminescent signal was quantified with an Infinite M200 microplate reader (Tecan, Männedorf, Switzerland) for five seconds. ATP concentration was quantified by internal sample addition. Squalamine (100 µg/mL) was used as a positive control to quantify the maximum level of ATP efflux and water as the negative control. […]

[5] = system: MRSA; assay: ATP efflux assay, MRSA; type: cell-based, methicillin-resistant S. aureus; settings: compound at 100 µg/mL
Procedure: as §7, §8, §9, §10

Row | SMILES | Real-time bacterial growth inhibition [1] | Real-time bacterial growth inhibition [2] | Outer membrane perturbation (nitrocefin hydrolysis) [3] | ATP release relative to positive control squalamine [4] | ATP release relative to positive control squalamine [5]
1 | C=C[C@]1(C)C[C@@H](OC(=O)CSCCN(CC)CC)[C@]2(C)[C@H](C)CC[C@]3(CCC(=O)[C@H]32)[C@@H](C)[C@@H]1O [Compound 2, Tiamulin, reference compound] | No such inhibition | inhibited the growth | failing to exhibit any detectable membrane perturbation | – | –
2 | C=C[C@]1(C)C[C@@H](OC(=O)CNCCCNCCCCCCCCCCNCCCNCC(=O)O[C@@H]2C[C@@](C)(C=C)[C@@H](O)[C@H](C)[C@]34CCC(=O)[C@H]3[C@@]2(C)[C@H](C)CC4)[C@]2(C)[C@H](C)CC[C@]3(CCC(=O)[C@H]32)[C@@H](C)[C@@H]1O.O=C(O)C(F)(F)F.O=C(O)C(F)(F)F.O=C(O)C(F)(F)F.O=C(O)C(F)(F)F [Compound 9e, N^1,N^1′-(Decane-1,10-diyl)bis(N^3-(2-(((3aR,4R,5R,7S,8S,9R,9aS,12R)-8-hydroxy-4,7,9,12-tetramethyl-3-oxo-7-vinyldecahydro-4,9a-propanocyclopenta [8]annulen-5-yl)oxy)-2-oxoethyl)propane-1,3-diaminium) 2,2,2-trifluoroacetate] | No such inhibition | inhibited the growth | inactive | 40% | 40%
